This note sets out measurements from ChEMBL document CHEMBL1127922, “Synthesis and pharmacological evaluation of vinyl sulfone based anticancer agents” (Bioorg Med Chem Lett, 1994).

The test system of data set [1] is Malme-3M. Put plainly: In vitro cytotoxicity in human tumor melanoma MALME-3M cell lines. It counts as functional.
Data set [2] relates to A549. Put plainly: In vitro cytotoxicity in human tumor lung carcinoma A-549 cell lines. It is filed as functional.
Data set [3] deals with HT-29. As to the kind of experiment: In vitro cytotoxicity in human tumor colon adenocarcinoma HT-29 cell lines. It is filed as functional.
The test system of data set [4] is SK-MEL-5. Put plainly: In vitro cytotoxicity in human tumor melanoma SK-MEL5c ell lines. It is filed as functional.
For data set [5], the system named is MCF7. As to the kind of experiment: In vitro cytotoxicity in human tumor breast carcinoma MCF-7 cell lines. It is filed as functional.
A short description of data set [6]: Total number of toxic deaths of mice to the total number of mice tested was determined at a dose of 100 mg/kg; 1/8. It is filed as ADME, organism-based. Details: dose 100 mg/kg. As to conditions: mouse, in vivo.
Data set [7] is described as follows: In vitro toxicity against ras transformed 3LL cell lines was determined. It counts as cell-based. As to conditions: ras transformed 3LL cells; read-out: LC50 (the source's name).
A short description of data set [8]: In vitro toxicity against ras transformed N/4.2-NRK cell lines was determined. As to conditions: rat, ras transformed N/4.2-NRK cells; read-out: LC50 (the source's name).
A short description of data set [9]: Ratio of LC50(NRKE) to LC50(K/1-NRK) expressed as differential induces(DI) was determined. It is filed as functional.
The subject of data set [10] is Mus musculus. As to the kind of experiment: In vivo inhibitory activity against HT-29 colon cells at maximally tolerated dose(MTD) of 100 mg/kg in mice. It counts as functional.
A short description of data set [11]: In vitro toxicity against ras transformed NRKE cell lines was determined. It counts as cell-based. The settings on record: rat, NRKE cells; read-out: LC50 (the source's name).
Data set [12] is described as follows: (§1) Ratio of LC50(NRKE) to LC50(H/1.2-NRK) expressed as differential induces(DI) was determined. It counts as functional.
Data set [13] is described as follows: In vitro toxicity against ras transformed K/1-NRK cell lines was determined. As to conditions: rat, ras transformed K/1-NRK cells; read-out: LC50 (the source's name).
Data set [14] has as its system Mus musculus. Put plainly: In vivo inhibitory activity against HT-29 colon cells at maximally tolerated dose(MTD) of 33 mg/kg in mice. It is filed as functional.
Data set [15] can be described thus: Total number of toxic deaths of mice to the total number of mice tested was determined at a dose of 33 mg/kg; 0/8. It counts as ADME, organism-based. The settings on record: mouse, in vivo. Also noted: dose 33 mg/kg.
A short description of data set [16]: In vitro toxicity against ras transformed H/1.2-NRK cell lines was determined. As to conditions: rat, ras transformed H/1.2-NRK cells; read-out: LC50 (the source's name).
The nature of data set [17]: Ratio of LC50(NRKE) to LC50(3LL) expressed as differential induces(DI) was determined. It is filed as functional.
Data set [18] in a line: (§2) Ratio of LC50(NRKE) to LC50(N/4.2-NRK ) expressed as differential induces(DI) was determined. It is filed as functional.
A short description of data set [19]: Total number of toxic deaths of mice to the total number of mice tested was determined at a dose of 3 mg/kg; 0/8. It counts as ADME, organism-based. Details: dose 3 mg/kg. As to conditions: mouse, in vivo.
In data set [20] the test system is Mus musculus. Put plainly: In vivo inhibitory activity against HT-29 colon cells at maximally tolerated dose(MTD) of 3 mg/kg in mice. It counts as functional.
The nature of data set [21]: Total number of toxic deaths of mice to the total number of mice tested was determined at a dose of 10 mg/kg; 0/8. It is filed as ADME, organism-based. Also noted: dose 10 mg/kg. The settings on record: mouse, in vivo.
Data set [22] deals with Mus musculus. As to the kind of experiment: In vivo inhibitory activity against HT-29 colon cells at maximally tolerated dose(MTD) of 10 mg/kg in mice. It is filed as functional.
Data set [23] is described as follows: as §1. The settings on record: rat, NRKE cells and H/1.2-NRK cells. It counts as ADME.
The test system of data set [24] is Mus musculus. As to the kind of experiment: In vivo inhibitory activity against HT-29 colon cells at maximally tolerated dose(MTD) of 11 mg/kg in mice. It counts as functional.
Data set [25] can be described thus: Total number of toxic deaths of mice to the total number of mice tested was determined at a dose of 11 mg/kg; 0/8. It is filed as ADME, organism-based. Also noted: dose 11 mg/kg. The settings on record: mouse, in vivo.
A short description of data set [26]: as §2. It counts as ADME. The settings on record: rat, NRKE cells and N/4.2-NRK cells.

For the compound `CC(C)(C)C1CCC(O)C(N)C1` (stereo not given), the ED50 in [1] was above 100000 nM; in data set [2], 0.00016 M l-1; in data set [3], above 100000 nM; in data set [4], 0.00045 M l-1; in data set [5], 0.00026 M l-1.
Turning to `C=C(CN(C)C1CC(C(C)(C)C)CCC1O)S(C)(=O)=O` (stereo not given), the ED50 in data set [1] came out at 4.8e-07 M l-1; in data set [2], 1.4e-05 M l-1; in [4], 5.6e-07 M l-1; in data set [5], 1.7e-07 M l-1.
Consider `C=C(CCl)S(C)(=O)=O`, for which the ED50 in data set [1] turned out to be 6.5e-06 M l-1; in data set [2], 1.9e-05 M l-1; in [3], 2.2e-06 M l-1; in data set [4], 3.2e-06 M l-1; in data set [5] it was 6.5e-06 M l-1.
With `C=C(CN1C(=O)OC2CCC(C(C)(C)C)CC21)S(C)(=O)=O` (stereo not given), the ED50 in data set [1] was 1.1e-05 M l-1; in data set [2], 2.9e-05 M l-1; in data set [4] it was 1.3e-06 M l-1; in data set [5], 2.7e-06 M l-1. The Toxic deaths in data set [6] came out at 1; in data set [15], 0. Besides, the CC50 in data set [7] was 3100 nM; in data set [8], 5000 nM; in data set [11], 4400 nM; in data set [13] it was 2600 nM; in data set [16], 4700 nM. For the same compound, the Ratio turned out to be 1.7 in data set [9], 0.9 in [12], 1.4 in data set [17] and 0.9 in [18]. Further, in [10], the inhibition in vivo – broadly, the drop in the measured response relative to a control, in per cent – at 100 mg/kg was found to be 0%. The same compound returned an inhibition in vivo at 33 mg/kg in [14] of 0%.
With `C=C(CN1COC2CCC(C(C)(C)C)CC21)S(C)(=O)=O` (stereo not given), the ED50 was 1e-06 M l-1 in data set [1], 1.2e-06 M l-1 in data set [2], 9.6e-07 M l-1 in data set [4] and 2.4e-07 M l-1 in data set [5]. For the same compound, the CC50 was determined as 500 nM in [7]; 1800 nM in [8]; 1400 nM in data set [11]; 500 nM in [13]; 2100 nM in data set [16]. In addition, the Toxic deaths in [19] and in data set [21] was 0 each time. Besides, the results for the Ratio in [12] and in [18] were 0.6 and 0.8, respectively. The compound also came in with an inhibition in vivo at 3 mg/kg in data set [20] of 0%. The inhibition in vivo at 10 mg/kg in data set [22] was found to be 0%.
Turning to `C=C(CN(CC(=C)S(C)(=O)=O)C1CC(C(C)(C)C)CCC1O)S(C)(=O)=O` (stereo not given), the ED50 in [1] is listed as 4.2e-06 M l-1; in data set [2], 1.3e-06 M l-1; in data set [4], 4.6e-07 M l-1; in [5], 3.3e-07 M l-1. Also, the CC50 in data set [7] stood at 800 nM; in [8], 1400 nM; in data set [11], 2400 nM; in [13] it was 600 nM; in data set [16], 2500 nM. The same compound returned an inhibition in vivo at 33 mg/kg in data set [14] of 0%. The results for the selectivity ratio in data set [23] and in data set [26] were 1 and 0.6, respectively. Further, the Toxic deaths in data set [15] and in data set [25] was 0 throughout. The inhibition in vivo at 11 mg/kg in [24] turned out to be 0%.
`C=C(CNC1CC(C(C)(C)C)CCC1O)S(C)(=O)=O` (stereo not given): the ED50 came out at 6e-07 M l-1 in [1], 6.7e-07 M l-1 in data set [2], 1.9e-07 M l-1 in data set [4] and 4.7e-07 M l-1 in [5].
